The results in this text go back to patent US20070042967A1, “Proteaseome inhibitors for the treatment of herpesviridae infected individuals” (priority 2002, published 2007).

The subject of one test is ICAM-1 (CD54). The test can be described thus: Surface expression of ICAM-1 (CD54) on HELF by flow cytometric analysis. It is filed as cell-based, human. Conditions: GCV for comparison; AD169 m.o.i.=1. How it is done: Next, we wondered whether MG132 is able to reduce the immune modulatory activity of HCMV. Therefore we measured the levels of extracellular IL-6, IL-8, and RANTES in the supernatants of mock-infected and AD-169-infected HELF (m.o.i. =1) following culture in the presence or absence of increasing amounts of MG132. In parallel, surface expression of ICAM-1 (CD54) was measured by flow cytometric analysis. As expected infection of HELF with AD 169 increased secretion of IL-6, EL-8 and RANTES (data not shown) as well as surface expression of ICAM-1 over time (FIGS. 14A and B). […]
Cell culture fluids were tested for RANTES using the ELISA KIT from R&D System, Germany, following the manufacturers instructions. […] Surface CD54 amounts were analysed using a FACScalibur analyser and cellquest software (Becton Dickinson, Germany). Data were calculated as A mean fluorescence intensities of CD54 and isotype control antibodies (=specific mean fluorescence intensity, MFI).
MG132-dependent suppression of HCMV-induced ICAM-1 surface expression Uninfected and AD169-infected HELF (m.o.i.=1) were grown in the absence or presence of MG132 or GCV and harvested 24 h (A) or 48 h (B) p.i. for surface ICAM-1 measurement by flowcytometric analysis. The specific MFI of uninfected and untreated control HELF was calculated as 100%. […]

The subject of test [1] is HCMV IE1/2 enhancer/promoter. As to the kind of experiment: TNFα stimulation / basal activity of the HCMV IE1/2 enhancer/promoter, CAT reporter (pRR55) in HL-60 cells. In kind it is cell-based, HCMV strain Ad169. The conditions noted are these: for influence on TNFα stimulation of the IE1/2 enhancer/promoter (in words): HL-60, HCMV AD169 promoter. How it is done: As a model for undifferentiated monocyte/granulocyte progenitor cells HL-60, cells (ATCC No. CCL 240) expressing high levels of CD34+ but low levels of typical differentiation antigens like CD11a-c and CD14 on their surface were used. Furthermore, HL-60 cells have retained the ability, to differentiate into granulocytes and monocytes depending on the stimulus. HL-60 cells were grown in RPMI 1640 medium supplemented with 10% fetal calf serum (both certified endotoxin-free, Biochrome, Germany) at 37° C. in a 5% humidified atmosphere. […] The cells were grown up to 1×10^6 cells per ml. HL-60 cells were transiently transfected with the plasmid pRR55 containing the native HCMV strain Ad169 IE1/2 enhancer/promoter region between nucleotides […] and +52 relative to the transcription start site upstream of the chloramphenicol acetyl transferase (CAT) reporter gene (Fickenscher et al., 1989). Plasmid DNA was prepared using the endofree Maxi Kit (QUIAGEN, Germany or Machery & Nagel, Germany) and stored in aliquots at −20° C. Transient transfection was performed using the DEAE transfection protocol (Stein et al., 1993). Per transfection reaction 5×10^5 cells were washed once with FCS-free medium and then resuspendend in 250 μl transfection buffer containing 1×TBS (24 mM Tris-HCl, pH 7.4, 137 mM NaCl, 5 mM KCl, 0.7 mM CaCl2, 0.5 mM MgCl2, 0.6 mM Na2HPO4), 2.5 μg plasmid DNA (1 μg/μl ) and 5 mg/ml DEAE dextran (Pharmacia-Amersham, Germany). To avoid differences in transfection efficiency, cells for parallel probes were transfected in one reaction and splitted after transfection. Transfection occurred for 1 h at 37° C. After that the cells were washed once with FCS-free RPMI 1640 medium and resuspended in medium containing 10% FCS at a concentration of 5×10^5 cells/5 ml. MG-132 (Calbiochemie, Germany) was dissolved in ethanol (5 μg/μl) and stored in aliqotes at −20 ° C. MG-132 was added into the medium at time zero after transfection and 1 h before TNFα (5 ng/ml, human recombinant TNFα; PAN, Germany, stored in aliquots containing 10 μg/μl at −80° C.). The cells were harvested 48 h after transfection, washed once with PBS and resuspended in 70 μl CAT buffer 1 (0.25 M Tris/HCl, pH 7.8, 0.5 mM EDTA). After 10 min of incubation on ice, cell extracts were prepared by repeated frozen/thawing of the cells (routinely 5 times), 10 min incubation at 65 ° C. to inactivate isoenzymes. Cell debris was removed by centrifugation at 12000 rpm for 10 min in an Eppendorf centrifuge. Cell extracts were measured for their protein concentrations using the method of Bradford (Bradford, 1976) and Bradford reagent (Sigma, Germany). Equal quantities of protein were used in the CAT-assay as described by Gorman et al., 1982. 20 μl lysates were incubated with [^14C]chloramphenicol (Hartman Analytic, Germany) and acetyl-CoA (Sigma, Germany) at 37° C. Reaction was stopped by extraction with ethylacetat (Merck, Germany). The acetylated products were quantified after separation by thin-layer chromatography using a thin layer scintillator. […] In the presence of 0.1 μg/ml MG-132 reduced TNFα stimulation by 50% (FIG. 1).
The reporter gene plasmid pRR55 contains the whole HCMV IE1/2 enhancer/promoter region between nucleotides +52 and −637 with respect to the IE1 transcriptions start site, upstream of the chloramphenicol acetyltransferase (CAT) gene [Fickenscher H, Stamminger T, Riiger R & Fleckenstein B. The role of a repetetive palindrormic sequence element in the human cytomegalovirus major immediate early enhancer. J Gen Virol 1989; 70:107-123.]. The plasmid was kindly provided by T. Stamminger (Eriangen, Germany). For transient transfection of HL-60 cells we used the DEAE dextran method as described earlier [Stein J, Volk H D, Liebenthal C, Kruger D H & Prosch S. Tumor necrosis factor alpha stimulates the activity of the human cytomegalovirus major immediate early enhancer/promoter in immature monocytic cells. J Gen Virol 1993; 74:2333-2338]. […]

Where a SMILES comes first, the peptide text is derived from it. The star is where a group is joined. Cbz = O=C(OCc1ccccc1)*; OtBu = CC(C)(C)O*

As for `Nc1nc(O)c2ncn(COC(CO)CO)c2n1` [GCV, Ganciclovir], the “influence on virus-induced ICAM-1 expression” value with ICAM-1 (CD54) is “no influence”.

As to `CC(C)C[C@H](NC(=O)OCc1ccccc1)C(=O)N[C@@H](CC(C)C)C(=O)N[C@H](C=O)Cc1ccccc1` [PS-2, Z-Leu-Leu-Phe-CHO] (Cbz-Leu-Leu-Phe-aldehyde), the “influence on TNFα stimulation of the IE1/2 enhancer/promoter (in words)” value in test [1] is reported as “reduce TNFα stimulation in a concentration-dependent manner”.

Regarding Cbz-IE(OtBu)AL-aldehyde [PS-1], the “decrease of TNFα stimulation” value in test [1] (0.5 to 0.1 μg/ml (0.81 to 0.16 μM), HL-60) was “about 60%”. Also, in test [1], the “influence on TNFα stimulation of the IE1/2 enhancer/promoter (in words)” value was “reduce TNFα stimulation in a concentration-dependent manner”.

With “N-carbobenzoxy-L-leucinyl-L-leucinyl-L-leucinal [MG-132]”, the “influence on TNFα stimulation of the IE1/2 enhancer/promoter (in words)” value in test [1] is listed as “decreased TNFα stimulation of the IE1/2 enhancer/promoter in a concentration-dependent manner”.
